Here are results for four compounds from patent US20160220527A1, “KINASE INHIBITORS FOR THE TREATMENT OF CANCER” (Pitney Pharmaceuticals Pty Limited, priority 2012, published 2016).

The test system of data set [1] is A2780. The data set can be described thus: SRB cell proliferation assay. The format is cell-based. The following applies: Table 3, AAD series, human epithelial ovarian cancer. Here is the method:
(§1) The human ovarian cancer cell lines OVCAR-3, SKOV-3 and A2780 and primary cells human umbilical vein endothelial cells (HUVEC) and all other cell lines were obtained from the American Type Culture Collection (ATCC) and maintained according to their instructions. Astrocytes and glioma cell lines were kindly gifted by Dr. Kerry McDonald from Lowy Cancer Research Centre, University of New South Wales, Australia.
(§2) Cell proliferation was assessed using the sulforhodamine B (SRB) assay. Cells seeded in 96-well plate (2,000-3,000 cell/well) were treated with MPL (0, 1, 5, 10, 25, 50 and 100 μmol/L) for 72 h. Cells were then fixed, washed and stained with 100 μl of 0.4% (w/v) SRB dissolved in 1% acetic acid. Unbound dye was removed by five washes with 1% acetic acid before air drying. Bound SRB was solubilized with 100 μl of 10 mM Tris base (pH 10.5) and the absorbance read at 570 nm. Exactly the same procedure was used to assess MPL-SO2. Both agents were dissolved in ethanol and diluted with media to give the final concentrations required for cell culture assays.

The test system of data set [2] is CHO. The data set can be described thus: SRB cell proliferation assay. The following applies: Cricetulus griseus, Table 3, AAD series, Chinese hamster ovarian cells. The format is cell-based. Here is the method:
as §1, §2

Data set [3] relates to HUVEC. The data set can be described thus: SRB cell proliferation assay. The following applies: Homo sapiens, Table 3, AAD series, human umbilical vein endothelial cells. The format is cell-based. As for the experimental part:
as §1, §2

The test system of data set [4] is OVCAR-3. Put plainly: SRB cell proliferation assay. The format is cell-based. The following applies: Table 3, AAD series, human epithelial ovarian cancer. As for the experimental part: as §1, §2
In data set [5] the test system is cancer cell lines. Put plainly: SRB cell proliferation assay, comparison across cell lines. It counts as cell-based. Here is the method: as §2
In data set [6] the test system is HCT-116. Put plainly: SRB cell proliferation assay. It counts as cell-based. Particulars: Homo sapiens; HCT-116, colorectal cancer. Here is the method:
as §1, §2

Data set [7] has as its system HT-29 5m11. Put plainly: SRB cell proliferation assay. It counts as cell-based. The following applies: Homo sapiens; HT-29 5m11, colorectal cancer. As for the experimental part: as §1, §2
Data set [8] relates to HT-29. The data set can be described thus: SRB cell proliferation assay. It counts as cell-based. The following applies: Homo sapiens; HT-29, colorectal cancer. As for the experimental part: as §1, §2
Data set [9] relates to HaCat. Put plainly: SRB cell proliferation assay. Particulars: Homo sapiens, keratinocyte. It counts as cell-based. Here is the method:
as §1, §2

For data set [10], the system named is LN-18. The data set can be described thus: SRB cell proliferation assay. The format is cell-based. The following applies: Homo sapiens; LN-18, glioma. As for the experimental part:
as §1, §2

The subject of data set [11] is MCF-7. Put plainly: SRB cell proliferation assay. The format is cell-based. Particulars: Homo sapiens, MCF7, MCF-7, breast cancer, 72 h. As for the experimental part:
as §1, §2

For data set [12], the system named is SW-876. Put plainly: SRB cell proliferation assay. It counts as cell-based. The following applies: SW-876, liposarcoma. Here is the method: as §1, §2
The test system of data set [13] is T98G. The data set can be described thus: SRB cell proliferation assay. The format is cell-based. The following applies: Homo sapiens, glioma. As for the experimental part: as §1, §2
For data set [14], the system named is OVCAR-3 or A2780 cells. The data set can be described thus: Colony formation assay. It counts as cell-based, human. The following applies: higher concentrations of MPL; 72 h exposure, 2 weeks drug free. As for the experimental part:
For colony formation assay, 5×10^6 cells, such as OVCAR-3 or A2780 cells, were plated in 100 mm Petri dishes and allowed to attach overnight. Media were aspirated off and exponentially growing cells were incubated with various concentrations of MPL for 72 h. At this point, the medium was aspirated, the dishes were washed with PBS, and drug free medium was added to each plate. Media were changed twice weekly for 3 weeks. Following this, plates were gently washed with PBS and cells were fixed with 100% ethanol and stained with a 0.5% solution of filtered crystal violet. Colonies consisting of more than 50 cells were counted under an inverted microscope.
To determine the effect of MPL on cell integrity and capacity to rid itself from drug effects following drug exposure and withdrawal, cells were incubated with MPL (0, 5, 10, 25 μM) for 72 h, washed with PBS, transferred to agar plates, cultured with growth medium and incubated under standard conditions for 2 weeks. Cells were then fixed with 100% methanol and stained with 1% crystal violet. Colonies (Cluster of cells greater than 50) were counted under microscope (magnification ×5). Number of colonies counted for different experimental groups is expressed as percentage of the control (FIG. 14).

Data set [15] concerns OVCAR-3 or A2780 cells. Put plainly: Cell cycle analysis by flow cytometry. It counts as cell-based, human. Particulars: 25 μM MPL. As for the experimental part: The effect of MPL on the cell cycle was determined using standard flow cytometry analysis protocols and procedures. Briefly, 0.7×10^6 million cells seeded in 25 cm^3 flasks and allowed to adhere overnight were treated with MPL for 24 or 48 h. Cells were collected with trypsinization and pooled with the cells floating in the medium. The cell suspensions were centrifuged, washed with PBS and fixed with methanol. Cells were then washed, resuspended in propodium iodide and ribonuclease A in PBS for 30 min at room temperature and analyzed by flow cytometry (Becton Dickinson FACSort).

For data set [16], the system named is cdk2, cdk4, cyclins A, and E. Put plainly: Western blot of cell cycle regulatory proteins. It counts as cell-based. Particulars: MPL 0, 5, 10, 25 μM. As for the experimental part:
Protein expression in cells was determined using western blot analysis. After treatment with the indicated concentrations of MPL, cell lysates were prepared and probed with antibodies for cdk2, cdk4, cyclin A, cyclin E, PARP-1 (1:1000 dilutions; Cell Signalling Technology), and p53 (1:200 dilutions; Santa Cruz Biotechnology).

The subject of data set [17] is OVCAR-3 or A2780 cells. The data set can be described thus: Cellular ATP levels and ADP/ATP ratio. The format is cell-based, human.
Data set [18] deals with U87 glioma cells. Put plainly: Autophagy (vacuole formation, LC3-II). The following applies: chemo-resistant U87 glioma cells. The format is cell-based.
The subject of data set [19] is OVCAR-3 tumors. Put plainly: s.c. OVCAR-3 xenografts in nude mice. The format is in vivo. Particulars: for s.c. tumor growth: i.p., three times weekly. As for the experimental part:
Female nude mice (6 weeks old) were purchased from Biological Resources (University of New South Wales). Institutional animal ethics approvals covered procedures carried out on mice. Briefly, 2.5×10^6 log-phase growing OVCAR-3 cells were injected s.c. into the left flank of each mouse. Animals were weighed once weekly while their tumor volumes were determined twice weekly. Tumor growth was monitored by caliper measurements of orthogonal diameters, and the estimated tumor volume was calculated based on the formula […], where width is the shorter of the two orthogonal measurements. Based on institutional ethics approval, mice were euthanized before the tumor volume reached 500 mm3. Treatment was initiated on day 8 post tumor cell inoculation when mice were randomized and assigned to one of MPL or vehicle treated groups (5-6 mice per group). MPL was suspended in […] methylcellulose (0.5% w/v HPMC), sterilized by sonnicator and administered every other day either intraperitoneally (i.p) or orally as gavage (100 μL).
In the first pilot trial, the drug was administered i.p. at 2.5 or 25 mg/kg body weight, three times weekly for 2 weeks.
Following the outcome, in the next set of animals, the dose was increased to 25 and 50 mg/kg, three times weekly.
In the last (third) pilot study, mice were treated orally. The doses administered were 50 and 100 mg/kg three times weekly. In all these trials, mice in control groups received similar volume of the vehicle (0.5% HPMC). Tumor histology/immunohistochemistry was performed on formalin fixed tumor slices according to standard procedures.

In data set [20] the test system is nicotinic receptors. The data set can be described thus: MPL antiproliferative effect after pre-treatment with nicotinic agonists or antagonists. Particulars: 30 min pre-treatment, MPL 5 μM, 72 h. It counts as cell-based. Here is the method: Cells were pre-treated (30 min) with increasing concentrations of nicotine, carbachol or the receptor antagonists, atropine, mecamylamine, tubocurarine, and α-bungarotoxin. MPL (5 μM) was added and left in the cell culture incubator for 72 h. Each drug concentration was tested in quadruplicate and each experiment was repeated twice. Combine values (mean±SEM) are presented as % control.

The test system of data set [21] is cancer cell-lines. Put plainly: Thymidine incorporation. It counts as cell-based.
The conditions of data set [22]: mammals; cited from earlier work.

Each structure is given as a SMILES string.

With `CC(C#N)(COc1ccccc1Cl)NC(=O)c1ccc(C(F)(F)F)cc1` (centres unmarked) [AAD 450], the IC50 in [1] came out at 33.5 ± 8.5 µM; in data set [2], 45.9 µM; in data set [3], 96.5 µM; in data set [4] it was 23.9 ± 1.45 µM.
Consider `C[C@](C#N)(COc1cc(C#N)ccc1C(F)(F)F)NC(=O)c1ccc(S(=O)(=O)C(F)(F)F)cc1` [MPL-SO2, monepantel sulphone], for which, in [5] (SRB proliferation assay), the “potency compared with MPL” value is “as potent as MPL”.
Regarding `C[C@](C#N)(COc1cc(C#N)ccc1C(F)(F)F)NC(=O)c1ccc(SC(F)(F)F)cc1` [MPL, N-[(1S)-1-cyano-2-(5-cyano-2-trifluoromethyl-phenoxy)-1-methyl-ethyl]-4-trifluoromethylsulfanyl-benzamide], the IC50 in data set [6] came out at 10.5 ± 0.02 µM; in data set [7], 10.4 µM; in [8] it was 5.86 ± 0.2 µM; in [9] it was 21.2 ± 3.2 µM; in data set [10], 9.38 ± 0.79 µM; in [11], 15.4 ± 1.1 µM. Besides, the IC50 in data set [12] is 14.6 µM; in data set [13], 18.2 ± 0.61 µM. In data set [5] (ovarian chemo-resistant, glioma temozolomide resistant, breast cancer tamoxifen resistant cells), the “sensitivity of chemo-resistant cell lines to antiproliferative action” value is on record as “sensitive”. Also, the clonogenic ability entry in data set [14] is listed as “almost complete loss of clonogenic ability”. Moreover, the “percentage of cells in G2-M phase” value in data set [15] is recorded as “more than three times higher”. In data set [16], the “expression of cell cycle regulatory proteins” value was “lower levels of cdk2, cdk4, cyclins A, and E”. Also, the “cellular ratio of ADP/ATP” value in [17] is “reduces the cellular ratio of ADP/ATP”. Also, the “expression of LC3-II (autophagy)” value in data set [18] is given as “increased expression of LC3-II in a concentration-dependent manner”. In addition, in data set [19] (MPL treated tumors from the in vivo trials), the tumor tissue histology entry is “extensive necrosis”. Moreover, the s.c. tumor growth entry in data set [19] (first trial, 25 mg/kg, female nude mice) is reported as “particularly effective”; in [19] (second trial, 50 mg/kg compared with 25 mg/kg), “more effective in retarding tumor growth”. Besides, in data set [20], the “MPL-induced inhibition of proliferation after pre-treatment with nicotinic agonists or antagonists” value was “neither positively nor negatively affected”. Moreover, the “thymidine incorporation into the cell (DNA synthesis)” value in [21] is recorded as “Blocks thymidine incorporation”. Further, the dosage well tolerated in [22] was 1000 mg of MPL per kg of body weight per 24 hours.
Turning to `CC(C#N)(COc1cc(Cl)ccc1Cl)NC(=O)c1ccc(OC(F)(F)F)cc1` (centres unmarked) [AAD 1154], the IC50 is 28 ± 4.5 µM in data set [1], 34.8 µM in data set [2], 61.1 µM in data set [3] and 20.5 ± 0.5 µM in data set [4].
